pIC50: −log10 of the molar value. Like-named read-outs stand apart in the source and are kept apart here.
Experiments:
Type in all cases: biochemical
Akt3 = Akt3 (Homo sapiens, UniProt Q9Y243); assay: AlphaScreen kinase assay, Akt3; settings: read-out: IC50, activity toward kinase Akt3
Excerpt: AlphaScreen assay was used to screen additional kinases. The assay is similarly dependent on the phosphorylation of a peptide substrate. In this assay, an antibody that recognizes phosphorylated substrate is bound to an acceptor bead. The peptide substrate is attached to biotin, which binds to a donor head that contains streptavidin. Thus phosphorylated substrate is bound by antibody and streptavidin, bringing the donor and acceptor heads into close proximity when kinase is not inhibited. The donor produces singlet oxygen which results in emission from the acceptor when they are in close proximity. Conversely, when kinase is inhibited, the donor and acceptor beads are not associated and the emission from the acceptor is reduced.
AlphaScreen assays were done using compounds dissolved in DMSO to a concentration of 20 mM. The compounds were diluted accordingly to the desired final concentrations in each sample well, using 1:3 serial dilution for a total of 8 concentration points.

FGFR1 = target: T1, FGFR1 (Homo sapiens, UniProt P11362, C488A/C584S); assay: AlphaScreen kinase assay, FGFR1
T1 construct: P1351.pET N6 BI-PTP FGFR A458-E765-X C488A, C584S; made in house; host or cells: E. coli (PTP1B co-expressed)

Pyk2 = target: T2, Pyk2 (Homo sapiens, UniProt Q14289); assay: AlphaScreen kinase assay, Pyk2; settings: read-out: IC50, activity toward kinase Pyk2
T2 construct: purchased Upstate Biotechnology

Src = target: T3, Src (Homo sapiens, UniProt P12931); assay: AlphaScreen kinase assay, Src; settings: read-out: IC50, activity toward kinase Src
T3 construct: P1144. pET-N6 BI-PTP SRC V86-L536-X; made in house

B-Raf = target: T4, B-Raf (Homo sapiens, UniProt P15056); assay: AlphaScreen kinase assay, B-Raf; settings: read-out: IC50, activity toward kinase B-Raf
T4 construct: purchased Upstate Biotechnology

Kit = target: T5, Kit (Homo sapiens, UniProt P10721); assay: AlphaScreen kinase assay, Kit; settings: read-out: IC50, activity toward kinase Kit
T5 construct: P1332.N6 BI PTP KIT M552-K948-X COD; His6 (N); made in house; host or cells: E. coli (PTP1B co-expressed)

Fak = target: T6, Fak (Homo sapiens, UniProt Q05397); assay: AlphaScreen kinase assay, Fak; settings: read-out: IC50, activity toward kinase Fak
T6 construct: P1358.pFastBacHtb FAK S411-Q686-X; His6 with pFastBacHTb leader (TEV site) (N); made in house; host or cells: Sf9 (baculovirus)

B-Raf V600E = target: T7, B-Raf V600E (Homo sapiens, UniProt P15056, V600E); assay: AlphaScreen kinase assay, B-Raf V600E; settings: read-out: IC50, activity toward kinase B-Raf V600E
T7 construct: P4254. pFastBacBD-CDC37 BRAF D437-K722-X, V600E; His6 with pFastBac HT leader (TEV site) (N); made in house; host or cells: Sf9 (baculovirus; chaperone CDC37 co-expressed)

Fms = target: T8, Fms (Homo sapiens, UniProt P07333); assay: AlphaScreen kinase assay, Fms; settings: read-out: IC50, activity toward kinase Fms
T8 construct: purchased Upstate Biotechnology

Jnk1 = target: T9, Jnk1 (Homo sapiens, UniProt P45983); assay: AlphaScreen kinase assay, Jnk1; settings: read-out: IC50, activity toward kinase Jnk1
T9 construct: purchased Upstate Biotechnology

c-Raf-1 = target: T10, c-Raf-1 (Homo sapiens, UniProt P04049); assay: AlphaScreen kinase assay, c-Raf-1; settings: read-out: IC50, activity toward kinase c-Raf-1
T10 construct: purchased Upstate Biotechnology

Jnk3 = target: T11, Jnk3 (Homo sapiens, UniProt P53779); assay: AlphaScreen kinase assay, Jnk3; settings: read-out: IC50, activity toward kinase Jnk3
T11 construct: purchased Upstate Biotechnology

MAP4K4 = MAP4K4 (Homo sapiens, UniProt O95819); assay: AlphaScreen kinase assay, MAP4K4; settings: read-out: IC50, activity toward kinase MAP4K4
Method: (§2) AlphaScreen assays were done using compounds dissolved in DMSO to a concentration of 20 mM. The compounds were diluted accordingly to the desired final concentrations in each sample well, using 1:3 serial dilution for a total of 8 concentration points. Plates were prepared such that each kinase reaction is 20 μl in 1× kinase buffer, 5% DMSO and 10 μM ATP. After incubation of the kinase reaction for 1 hour at room temperature, 5 μl of donor beads in stop buffer (50 mM EDTA in 1× kinase buffer) was added, the sample was mixed and incubated for 20 minutes at room temperature before adding 5 μl of acceptor beads in stop buffer. The samples were incubated for 60 minutes at room temperature and the signal per well was read on AlphaQuest reader.

Yes = target: T12, Yes (Homo sapiens, UniProt P07947); assay: Z'-Lyte FRET kinase assay (Invitrogen), Yes; settings: read-out: IC50, activity toward kinase Yes
T12 construct: purchased Invitrogen (Carlsbad, Calif.), screening service
Outline: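 10 μM ATP, 2 μM peptide, 1% DMSO final; HEPES pH 7.5 buffer with MgCl2/EGTA/BRIJ-35. Kinase rxn 1 h RT, protease development 1 h RT, stop, read donor/acceptor ratio. Compound titrated.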

Stk6 = target: T13, Stk6 (Homo sapiens, UniProt O14965); assay: Z'-Lyte FRET kinase assay (Invitrogen), Stk6; settings: read-out: IC50, activity toward kinase Stk6
T13 construct: purchased Invitrogen (Carlsbad, Calif.), screening service
T13 sequence (O14965 1-403): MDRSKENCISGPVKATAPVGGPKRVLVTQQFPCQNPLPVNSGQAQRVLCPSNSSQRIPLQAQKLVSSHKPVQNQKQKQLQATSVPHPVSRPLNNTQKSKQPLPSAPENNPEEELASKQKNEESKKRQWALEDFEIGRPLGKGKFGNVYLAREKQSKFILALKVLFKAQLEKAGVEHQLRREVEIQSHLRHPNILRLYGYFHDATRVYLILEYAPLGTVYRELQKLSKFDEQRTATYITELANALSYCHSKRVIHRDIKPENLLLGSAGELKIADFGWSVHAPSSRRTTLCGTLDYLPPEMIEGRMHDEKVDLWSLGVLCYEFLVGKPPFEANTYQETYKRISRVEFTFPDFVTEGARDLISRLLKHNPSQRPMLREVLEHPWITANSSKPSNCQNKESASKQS

Kdr = target: T14, Kdr (Homo sapiens, UniProt P35968); assay: Z'-Lyte FRET kinase assay (Invitrogen), Kdr; settings: read-out: IC50, activity toward kinase Kdr
T14 construct: purchased Invitrogen (assay run by Invitrogen)

Jnk2 = target: T15, Jnk2 (Homo sapiens, UniProt P45984); assay: AlphaScreen kinase assay, Jnk2; settings: read-out: IC50, activity toward kinase Jnk2
T15 construct: purchased Roche Protein Expression Group (Indianapolis, IN)
Outline: (§1)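 Here, phosphorylation of a biotin-tagged peptide was sensed by proximity of streptavidin donor and antibody-bearing acceptor beads. Test compounds covered 8 concentrations by 1:3 serial dilution of 20 mM DMSO stocks.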

Ret = target: T16, Ret (Homo sapiens, UniProt P07949); assay: AlphaScreen kinase assay, Ret; settings: read-out: IC50, activity toward kinase Ret
T16 construct: P1378.pET-SF BI-PTP RET H661-R1012 HIS; made in house
T16 sequence (P07949 with tags, fused parts or gaps): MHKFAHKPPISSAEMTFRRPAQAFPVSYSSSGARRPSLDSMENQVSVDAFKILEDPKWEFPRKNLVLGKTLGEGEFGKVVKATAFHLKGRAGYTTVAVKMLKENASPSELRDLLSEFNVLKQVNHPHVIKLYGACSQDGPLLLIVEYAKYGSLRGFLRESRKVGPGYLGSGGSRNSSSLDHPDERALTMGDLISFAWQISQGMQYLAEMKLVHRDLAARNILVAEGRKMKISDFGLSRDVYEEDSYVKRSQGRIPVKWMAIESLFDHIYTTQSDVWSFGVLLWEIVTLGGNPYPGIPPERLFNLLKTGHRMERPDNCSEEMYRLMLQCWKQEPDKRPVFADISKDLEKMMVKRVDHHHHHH

Flt1 = target: T17, Flt1 (Homo sapiens, UniProt P17948); assay: AlphaScreen kinase assay, Flt1; settings: read-out: IC50, activity toward kinase Flt1
T17 construct: P1826.pETN6 BI-PTP FLT1 M799-D1165-X WT; His6 (N); made in house; host or cells: E. coli (PTP1B co-expressed)
T17 sequence (P17948 with tags, fused parts or gaps): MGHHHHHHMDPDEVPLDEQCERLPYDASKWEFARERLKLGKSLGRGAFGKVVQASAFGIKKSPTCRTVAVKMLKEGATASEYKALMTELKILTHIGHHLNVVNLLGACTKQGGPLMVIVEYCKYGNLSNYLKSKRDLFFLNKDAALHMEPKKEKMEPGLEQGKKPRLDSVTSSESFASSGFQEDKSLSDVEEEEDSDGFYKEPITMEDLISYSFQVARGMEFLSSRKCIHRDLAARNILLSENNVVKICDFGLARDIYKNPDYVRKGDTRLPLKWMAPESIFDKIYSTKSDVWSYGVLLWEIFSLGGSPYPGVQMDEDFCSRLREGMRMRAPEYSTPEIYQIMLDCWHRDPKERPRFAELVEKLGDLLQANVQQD
Method: as §2

Zap70 = target: T18, Zap70 (Homo sapiens, UniProt P43403); assay: AlphaScreen kinase assay, Zap70; settings: read-out: IC50, activity toward kinase Zap70
T18 construct: P1868.pFastBac1 ZAP70 D327-G606 HIS, WT; His7 (HHHHHHH) (C); made in house
T18 sequence (P43403 with tags, fused parts or gaps): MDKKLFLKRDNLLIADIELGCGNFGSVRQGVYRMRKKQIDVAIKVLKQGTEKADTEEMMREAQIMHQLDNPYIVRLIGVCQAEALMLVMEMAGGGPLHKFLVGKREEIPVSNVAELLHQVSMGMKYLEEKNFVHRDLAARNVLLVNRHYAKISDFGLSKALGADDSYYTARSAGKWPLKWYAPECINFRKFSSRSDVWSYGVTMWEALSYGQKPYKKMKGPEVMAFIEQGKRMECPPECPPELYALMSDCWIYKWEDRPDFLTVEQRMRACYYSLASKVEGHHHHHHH
Outline: as §1

[1] = read-out: IC50, activity toward kinase FGFR

Measured: pIC50

T4 sequence (P15056 whole entry): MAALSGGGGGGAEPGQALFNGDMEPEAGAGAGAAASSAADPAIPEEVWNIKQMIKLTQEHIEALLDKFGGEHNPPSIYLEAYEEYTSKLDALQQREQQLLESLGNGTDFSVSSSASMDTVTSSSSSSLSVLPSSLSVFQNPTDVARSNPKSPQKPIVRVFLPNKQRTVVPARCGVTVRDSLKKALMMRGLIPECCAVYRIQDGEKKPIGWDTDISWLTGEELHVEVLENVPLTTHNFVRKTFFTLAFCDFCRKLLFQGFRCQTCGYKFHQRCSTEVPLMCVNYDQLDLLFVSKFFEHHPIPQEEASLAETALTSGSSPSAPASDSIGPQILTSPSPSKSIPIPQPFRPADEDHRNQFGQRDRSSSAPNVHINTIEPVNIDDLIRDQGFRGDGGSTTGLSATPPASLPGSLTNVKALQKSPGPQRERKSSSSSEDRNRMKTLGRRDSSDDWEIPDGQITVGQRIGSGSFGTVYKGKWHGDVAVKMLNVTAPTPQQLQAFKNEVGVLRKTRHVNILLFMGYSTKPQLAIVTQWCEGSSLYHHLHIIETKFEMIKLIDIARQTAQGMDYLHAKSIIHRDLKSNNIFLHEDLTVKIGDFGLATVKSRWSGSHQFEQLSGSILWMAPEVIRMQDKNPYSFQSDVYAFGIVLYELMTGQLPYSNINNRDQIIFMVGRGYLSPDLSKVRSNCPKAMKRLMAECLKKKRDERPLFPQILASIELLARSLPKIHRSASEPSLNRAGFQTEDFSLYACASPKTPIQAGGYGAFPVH
T1 sequence (P11362 458-765 C488A/C584S): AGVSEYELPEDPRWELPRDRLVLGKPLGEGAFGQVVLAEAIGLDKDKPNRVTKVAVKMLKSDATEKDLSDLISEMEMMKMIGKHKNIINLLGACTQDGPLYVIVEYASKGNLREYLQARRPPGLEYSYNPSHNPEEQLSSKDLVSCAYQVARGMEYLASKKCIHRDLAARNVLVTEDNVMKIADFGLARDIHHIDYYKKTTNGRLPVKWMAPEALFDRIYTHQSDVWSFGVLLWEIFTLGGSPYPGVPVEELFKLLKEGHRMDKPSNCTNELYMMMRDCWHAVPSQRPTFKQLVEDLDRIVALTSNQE
T10 sequence (P04049 whole entry): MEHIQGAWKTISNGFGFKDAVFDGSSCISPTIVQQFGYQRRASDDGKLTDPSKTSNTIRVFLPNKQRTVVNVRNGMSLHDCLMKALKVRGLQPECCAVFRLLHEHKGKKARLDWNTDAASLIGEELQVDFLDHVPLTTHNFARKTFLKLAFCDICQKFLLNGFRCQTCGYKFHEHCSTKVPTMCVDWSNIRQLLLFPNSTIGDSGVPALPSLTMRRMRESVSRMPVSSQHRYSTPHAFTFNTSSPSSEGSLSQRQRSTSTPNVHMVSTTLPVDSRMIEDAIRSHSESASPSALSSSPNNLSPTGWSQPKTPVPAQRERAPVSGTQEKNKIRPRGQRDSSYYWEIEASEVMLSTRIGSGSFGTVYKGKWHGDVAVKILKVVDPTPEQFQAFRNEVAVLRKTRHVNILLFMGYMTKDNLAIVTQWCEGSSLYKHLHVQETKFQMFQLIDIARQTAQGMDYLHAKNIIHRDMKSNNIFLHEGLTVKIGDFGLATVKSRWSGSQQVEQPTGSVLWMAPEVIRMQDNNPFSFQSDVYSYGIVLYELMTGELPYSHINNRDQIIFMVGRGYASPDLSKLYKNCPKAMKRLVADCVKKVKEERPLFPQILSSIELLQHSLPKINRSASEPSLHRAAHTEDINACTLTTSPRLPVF
T7 sequence (P15056 with tags, fused parts or gaps V600E): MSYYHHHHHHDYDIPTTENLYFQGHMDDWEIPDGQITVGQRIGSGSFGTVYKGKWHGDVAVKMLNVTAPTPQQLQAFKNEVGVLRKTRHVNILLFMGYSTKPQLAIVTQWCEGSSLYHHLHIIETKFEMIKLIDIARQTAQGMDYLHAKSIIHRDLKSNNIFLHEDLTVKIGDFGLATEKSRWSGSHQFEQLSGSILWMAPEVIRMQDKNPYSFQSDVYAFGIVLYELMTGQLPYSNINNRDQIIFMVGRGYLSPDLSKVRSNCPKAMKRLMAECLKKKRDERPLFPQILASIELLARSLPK
Chain of Akt3 (Q9Y243 whole entry): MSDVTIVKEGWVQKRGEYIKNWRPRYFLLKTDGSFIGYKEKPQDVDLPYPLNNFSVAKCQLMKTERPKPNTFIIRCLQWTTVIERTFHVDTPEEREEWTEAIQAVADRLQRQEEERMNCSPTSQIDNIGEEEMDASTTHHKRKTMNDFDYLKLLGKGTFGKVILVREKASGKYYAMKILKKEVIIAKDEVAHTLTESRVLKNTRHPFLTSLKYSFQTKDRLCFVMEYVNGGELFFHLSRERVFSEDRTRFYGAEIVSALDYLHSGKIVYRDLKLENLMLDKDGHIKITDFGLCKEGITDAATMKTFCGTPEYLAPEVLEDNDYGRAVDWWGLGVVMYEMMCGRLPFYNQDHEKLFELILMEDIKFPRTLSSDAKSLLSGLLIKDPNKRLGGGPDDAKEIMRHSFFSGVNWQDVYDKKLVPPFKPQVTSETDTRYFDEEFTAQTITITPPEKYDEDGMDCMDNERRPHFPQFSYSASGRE
T9 sequence (P45983 whole entry): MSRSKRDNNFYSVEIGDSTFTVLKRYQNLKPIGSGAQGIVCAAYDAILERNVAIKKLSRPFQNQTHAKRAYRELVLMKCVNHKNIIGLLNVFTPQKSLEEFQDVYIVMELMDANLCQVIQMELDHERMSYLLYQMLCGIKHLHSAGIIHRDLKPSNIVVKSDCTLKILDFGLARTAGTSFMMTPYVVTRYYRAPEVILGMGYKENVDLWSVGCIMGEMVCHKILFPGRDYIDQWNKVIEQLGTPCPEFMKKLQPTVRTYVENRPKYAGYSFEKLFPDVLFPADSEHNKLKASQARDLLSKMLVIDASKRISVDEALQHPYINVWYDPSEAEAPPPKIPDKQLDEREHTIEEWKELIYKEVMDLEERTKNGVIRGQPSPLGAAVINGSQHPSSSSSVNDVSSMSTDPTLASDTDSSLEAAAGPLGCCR
T3 sequence (P12931 with tags, fused parts or gaps): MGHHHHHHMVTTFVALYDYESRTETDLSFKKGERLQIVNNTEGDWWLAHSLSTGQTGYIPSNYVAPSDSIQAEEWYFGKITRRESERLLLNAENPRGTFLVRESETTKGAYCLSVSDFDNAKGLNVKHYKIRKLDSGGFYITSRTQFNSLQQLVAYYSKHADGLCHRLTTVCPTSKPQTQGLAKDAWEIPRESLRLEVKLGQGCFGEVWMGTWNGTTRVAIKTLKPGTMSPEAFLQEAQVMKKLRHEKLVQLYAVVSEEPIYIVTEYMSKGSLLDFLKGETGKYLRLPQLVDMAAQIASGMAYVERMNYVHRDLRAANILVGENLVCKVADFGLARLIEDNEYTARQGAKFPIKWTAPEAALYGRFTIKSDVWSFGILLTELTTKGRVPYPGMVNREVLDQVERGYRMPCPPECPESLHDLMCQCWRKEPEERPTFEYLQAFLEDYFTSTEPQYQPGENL
T11 sequence (P53779 whole entry): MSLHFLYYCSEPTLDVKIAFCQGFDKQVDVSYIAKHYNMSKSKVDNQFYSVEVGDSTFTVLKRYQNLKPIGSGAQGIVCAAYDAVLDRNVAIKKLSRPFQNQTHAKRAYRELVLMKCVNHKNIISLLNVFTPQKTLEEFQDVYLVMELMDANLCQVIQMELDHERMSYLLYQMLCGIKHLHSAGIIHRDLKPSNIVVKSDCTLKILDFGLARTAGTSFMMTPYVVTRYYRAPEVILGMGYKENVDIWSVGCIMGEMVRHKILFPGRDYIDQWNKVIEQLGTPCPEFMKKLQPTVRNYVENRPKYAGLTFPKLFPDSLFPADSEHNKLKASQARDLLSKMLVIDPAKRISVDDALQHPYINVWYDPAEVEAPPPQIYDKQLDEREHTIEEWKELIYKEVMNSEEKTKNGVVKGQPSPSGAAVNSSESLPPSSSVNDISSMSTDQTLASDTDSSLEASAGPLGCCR
T2 sequence (Q14289 whole entry): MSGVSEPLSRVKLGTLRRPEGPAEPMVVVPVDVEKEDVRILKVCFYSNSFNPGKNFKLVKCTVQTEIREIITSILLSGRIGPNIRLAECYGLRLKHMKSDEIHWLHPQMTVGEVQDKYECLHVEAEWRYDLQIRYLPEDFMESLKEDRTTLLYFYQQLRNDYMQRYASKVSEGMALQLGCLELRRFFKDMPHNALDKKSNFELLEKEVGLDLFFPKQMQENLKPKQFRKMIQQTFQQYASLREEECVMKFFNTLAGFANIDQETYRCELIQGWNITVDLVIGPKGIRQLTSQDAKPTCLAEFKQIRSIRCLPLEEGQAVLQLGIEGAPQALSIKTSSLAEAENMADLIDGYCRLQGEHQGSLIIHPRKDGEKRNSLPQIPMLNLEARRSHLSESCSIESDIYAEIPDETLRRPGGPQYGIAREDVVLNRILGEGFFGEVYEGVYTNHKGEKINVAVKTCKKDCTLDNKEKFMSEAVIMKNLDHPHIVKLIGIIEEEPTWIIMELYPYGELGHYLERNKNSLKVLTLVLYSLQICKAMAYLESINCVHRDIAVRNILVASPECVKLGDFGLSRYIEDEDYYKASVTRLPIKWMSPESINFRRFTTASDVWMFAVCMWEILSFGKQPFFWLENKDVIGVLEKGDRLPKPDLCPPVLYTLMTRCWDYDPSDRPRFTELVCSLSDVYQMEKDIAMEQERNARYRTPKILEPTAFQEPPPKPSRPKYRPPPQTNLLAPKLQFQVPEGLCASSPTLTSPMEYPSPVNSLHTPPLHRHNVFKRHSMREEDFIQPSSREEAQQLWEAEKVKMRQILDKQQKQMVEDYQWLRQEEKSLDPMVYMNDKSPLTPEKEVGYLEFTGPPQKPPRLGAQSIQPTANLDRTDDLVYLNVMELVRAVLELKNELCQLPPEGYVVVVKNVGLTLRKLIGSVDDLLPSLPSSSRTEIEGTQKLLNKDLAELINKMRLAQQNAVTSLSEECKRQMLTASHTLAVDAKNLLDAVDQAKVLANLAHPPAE

CSc1cccc(Nc2cnc3[nH]ccc3c2)c1 [Compound P-1150]
≥ 5.00: Akt3

c1cnc2ccc(Nc3cnc4[nH]ccc4c3)cc2c1 [Compound P-1034]
≥ 5.00: Akt3

CSc1ccc(Nc2ccnc3[nH]ccc23)cc1 [Compound P-0990]
≥ 5.00: Akt3

CSc1ccc(Nc2cnc3[nH]ccc3c2)cc1 [Compound P-1158]
≥ 5.00: Akt3

CC(C)S(=O)(=O)Nc1ccc(F)c(Cc2c[nH]c3ncc(-c4cccnc4)cc23)c1F [Compound P-0851]
≥ 5.00: FGFR1; [1] | Pyk2 | Src | B-Raf | Kit | Fak | B-Raf V600E | Fms | Jnk1 | c-Raf-1 | Jnk3 | MAP4K4

O=C(c1ccc(NCC2CC2)nc1)c1c[nH]c2ncccc12 [Compound P-0202]
≥ 5.00: Yes | Stk6 | Kdr | MAP4K4

Cc1ccc(Nc2ccnc3[nH]ccc23)cc1[N+](=O)[O-] [Compound P-0995]
≥ 5.00: Akt3

c1cc2cc(Nc3ccc4ncsc4c3)cnc2[nH]1 [Compound P-1040]
≥ 5.00: Akt3

CS(=O)(=O)Nc1ccc(Cl)c(C(=O)c2c[nH]c3ncc(-c4cccnc4)cc23)c1F [Compound P-0734, N-[4-Chloro-2-fluoro-3-(5-pyridin-3-yl-1H-pyrrolo[2,3-b]pyridine-3-carbonyl)-phenyl]-methanesulfonamide]
≥ 5.00: FGFR1; [1] | B-Raf | B-Raf V600E | Jnk2 | Ret | Jnk1 | c-Raf-1 | Jnk3 | MAP4K4

CCCS(=O)(=O)Nc1ccc(F)c(C(=O)c2c[nH]c3ncc(OCCOC)cc23)c1F [Compound P-1253, Propane-1-sulfonic acid {2,4-difluoro-3-[5-(2-methoxy-ethoxy)-1H-pyrrolo[2,3-b]pyridine-3-carbonyl]-phenyl}-amide]
≥ 5.00: FGFR1; [1] | Src | B-Raf | Kit | Fak | B-Raf V600E | Fms | Jnk2 | Jnk1 | c-Raf-1 | Jnk3 | MAP4K4

CCCS(=O)(=O)Nc1ccc(Cl)c(C(=O)c2c[nH]c3ncc(-c4cccnc4)cc23)c1F [Compound P-0753, Propane-1-sulfonic acid [4-chloro-2-fluoro-3-(5-pyridin-3-yl-1H-pyrrolo[2,3-b]pyridine-3-carbonyl)-phenyl]-amide]
≥ 5.00: FGFR1 | Pyk2 | Src | Kit | Fms | Jnk1 | c-Raf-1 | Jnk3 | MAP4K4

Oc1ccc(Nc2ccnc3[nH]ccc23)cc1 [Compound P-1172]
≥ 5.00: Akt3

COc1ccc(Nc2ccnc3[nH]ccc23)cc1 [Compound P-1155]
≥ 5.00: Akt3

Cc1cccc(Nc2ccnc3[nH]ccc23)c1 [Compound P-1060]
≥ 5.00: Akt3

COc1ccc(Nc2ccnc3[nH]ccc23)cc1Cl [Compound P-0936]
≥ 5.00: Akt3

c1cc(Nc2ccc3c(c2)OCO3)c2cc[nH]c2n1 [Compound P-1062]
≥ 5.00: Akt3

CC(C)c1ccc(Nc2cnc3[nH]ccc3c2)cc1 [Compound P-1039]
≥ 5.00: Akt3

c1cc(Nc2ccc3[nH]ccc3c2)c2cc[nH]c2n1 [Compound P-0940]
≥ 5.00: Akt3

OCCOc1cccc(Cc2c[nH]c3ncc(-c4ccsc4)cc23)c1 [Compound P-0287]
≥ 5.00: FGFR1; [1] | Pyk2 | Kit | Flt1 | Stk6 | B-Raf V600E | Fms | Kdr | MAP4K4

c1ccc2c(Cc3c[nH]c4ncccc34)cccc2c1 [Compound P-0442]
≥ 5.00: FGFR1; [1] | MAP4K4 | Zap70

Reference: patent publication US8415469B2, “Compounds and methods for kinase modulation, and indications therefor” (Plexxikon Inc., priority 2005, dated 2013)
